The record followed here is patent US20060029628A1, “Use of a volatile cooling sensate on fibrous tissues to provide a sensation of rhinological decongestion” (priority 2004, published 2006).

The nature of the series: Vapour pressure of the pure substance. It is filed as physicochemical. As to conditions: about 20° C. The method, then:
“Volatility” according to the present invention is considered to be present for substances having a liquid or sublimation vapour pressure of the pure substance at 20° C. of at least about 0.013 Pascal (0.0001 mmHg), or at least about 0.1 Pascal. Vapour pressure can be measured according to ASTM Standard E1194-01 of November 2001. In certain embodiments according to the present invention, an upper limit for the vapour pressure of pure material should be less than about 67 Pascal (0.5 mmHg), or less than about 13 Pascal (0.1 mmHg) each at 20° C. Evaluation of whether a composition does vaporize sufficiently can be made by a panel of at least five people or by vapour head evaluation, e.g. with gas chromatography.

`CNC(=O)C(C)(C(C)C)C(C)C` [WS-23, 2-Isopropyl-N,2,3-trimethylbutyramide]: the vapour pressure result is on record as “about 0.53 Pascal”. Further, the vapour pressure (equivalent of the Pascal value) was determined as 0.004 mmHg.
